The molecules below were run against T1, Human CARM1 (PRMT4) (Homo sapiens, UniProt Q86X55) (assay: CARM1 biochemical assay (3H-SAM Flashplate, peptide substrate)).
T1 construct: Flag-CARM1-His was eluted with 200 ug/ml FLAG peptide in buffer A; made in house; host or cells: HEK 293F cells (BacMam virus, pFastBacMam)
T1 sequence (Q86X55 with tags, fused parts or gaps isoform Q86X55-1): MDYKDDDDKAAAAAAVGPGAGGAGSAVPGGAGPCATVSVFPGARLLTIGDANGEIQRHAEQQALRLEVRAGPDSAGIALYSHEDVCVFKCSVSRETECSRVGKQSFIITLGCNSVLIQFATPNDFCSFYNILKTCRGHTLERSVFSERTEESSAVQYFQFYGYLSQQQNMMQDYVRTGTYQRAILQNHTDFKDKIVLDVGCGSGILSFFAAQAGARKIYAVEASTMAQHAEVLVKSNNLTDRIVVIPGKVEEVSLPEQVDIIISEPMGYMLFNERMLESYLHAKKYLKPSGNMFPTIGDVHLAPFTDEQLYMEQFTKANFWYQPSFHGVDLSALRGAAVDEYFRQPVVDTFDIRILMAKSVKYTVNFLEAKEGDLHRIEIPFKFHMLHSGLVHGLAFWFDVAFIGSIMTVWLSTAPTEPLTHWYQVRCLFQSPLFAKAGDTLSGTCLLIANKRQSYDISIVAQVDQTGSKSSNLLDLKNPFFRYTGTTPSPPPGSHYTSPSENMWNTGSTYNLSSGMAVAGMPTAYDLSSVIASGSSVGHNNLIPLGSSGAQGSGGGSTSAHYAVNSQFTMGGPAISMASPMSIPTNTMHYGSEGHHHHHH
From the text: General Materials. S-adenosylmethionine (SAM), S-adenosylhomocysteine (SAH), bicine, Tween20, dimethylsulfoxide (DMSO), bovine skin gelatin (BSG), sodium butyrate and Tris(2-carboxyethyl)phosphine hydrochloride solution (TCEP) were purchased from Sigma-Aldrich at the highest level of purity possible. ^3H-SAM was purchase from American Radiolabeled Chemicals with a specific activity of 80 Ci/mmol. 384-well streptavidin Flashplates were purchased from PerkinElmer.
Substrates. Peptide representative of human histone H3 residues 16-30 was synthesized with an N-terminal linker-affinity tag motif and a C-terminal amide cap by 21st Century Biochemicals.
Protein Expression. Recombinant baculovirus were generated according to Bac-to-Bac kit instructions (Life Technologies). […] Infections were carried out at 37° C. for 48 hours, harvested by centrifugation, and stored at −80° C. for purification.
Protein Purification. […] Column was washed with 500 mM NaCl in buffer A and Flag-CARM1-His was eluted with 200 ug/ml FLAG peptide in buffer A. Pooled fractions were dialyzed in 20 mM Tris, 150 mM NaCl, 5% glycerol and 1 mM DTT, pH 7.8.
General Procedure for CARM1 Enzyme Assays on Peptide Substrates. The assays were all performed in a buffer consisting of 20 mM Bicine (pH=7.6), 1 mM TCEP, 0.005% BSG, and 0.002% Tween 20, prepared on the day of use. […] DMSO (1 ul) was added to Columns 11, 12, 23, 24, rows A-H for the maximum signal control and 1 ul of SAH, a known product and inhibitor of CARM1, was added to columns 11, 12, 23, 24, rows I-P for the minimum signal control. A cocktail (40 ul) containing the CARM1 enzyme was added by Multidrop Combi (Thermo-Fisher). The compounds were allowed to incubate with CARM1 for 30 min at room temperature, then a cocktail (10 ul) containing ^3H-SAM and peptide was added to initiate the reaction (final volume=51 ul). […] The assays were stopped by the addition of non-radiolabeled SAM (10 ul) to a final concentration of 300 uM, which dilutes the ^3H-SAM to a level where its incorporation into the peptide substrate is no longer detectable. 50 ul of the reaction in the 384-well polypropylene plate was then transferred to a 384-well Flashplate and the biotinylated peptides were allowed to bind to the streptavidin surface for at least 1 hour before being washed once with 0.1% Tween20 in a Biotek ELx405 plate washer. The plates were then read in a PerkinElmer TopCount plate reader to measure the quantity of ^3H-labeled peptide bound to the Flashplate surface, measured as disintegrations per minute (dpm) or alternatively, referred to as counts per minute (cpm).
Where dpm=disintegrations per minute, cmpd=signal in assay well, and min and max are the respective minimum and maximum signal controls.
Where top and bottom are the normally allowed to float, but may be fixed at 100 or 0 respectively in a 3-parameter fit. The Hill Coefficient normally allowed to float but may also be fixed at 1 in a 3-parameter fit. Y is the % inhibition and X is the compound concentration.
`COCCn1cc(CN(C)CCN)c(-c2ccc(F)cc2)n1` [Compound 5] was tested, and the IC50 was > 10 µM. `COCCn1ncc(CN(C)CCN)c1-c1ccc(F)cc1` [Compound 6] was tested, and the IC50 was > 10 µM. `CCn1ncc(CN(C)CCNC)c1-c1ccc(F)cc1` [Compound 7] showed an IC50 of 1.01 to 3 µM. `CCn1cc(CN(C)CCNC)c(-c2ccc(F)cc2)n1` [Compound 8] gave an IC50 of 3.01 to 10 µM. `CN(CCN)Cc1c[nH]nc1-c1ccc(Cl)cc1` [Compound 95] showed an IC50 of 0.101 to 1 µM. For `CN(CCN)Cc1c[nH]nc1-c1ccc(OCC(F)(F)F)cc1` [Compound 96], the IC50 was < 0.1 µM. With `CC(C)Oc1ccc(-c2n[nH]cc2CN(C)CCN)cc1F` [Compound 97] the IC50 was 0.101 to 1 µM. With `CN(CCN)Cc1c[nH]nc1-c1ccc(C2CCOCC2)cc1` [Compound 98] the IC50 was 0.101 to 1 µM. `CN(CCN)Cc1c[nH]nc1-c1ccc(F)cc1F` [Compound 99] showed an IC50 of 3.01 to 10 µM. Work on `CN(CCN)Cc1n[nH]cc1-c1ccc(C#N)cc1` [Compound 100] yielded an IC50 of 3.01 to 10 µM. With `CC(C)c1ccc(-c2c[nH]nc2CN(C)CCN)cc1` [Compound 101] the IC50 was 3.01 to 10 µM. `CN(CCN)Cc1n[nH]cc1-c1ccc(Cl)cc1` [Compound 102] gave an IC50 of 1.01 to 3 µM. For `CN(CCN)Cc1n[nH]cc1-c1ccc(C(F)(F)F)cc1` [Compound 103], the IC50 was 1.01 to 3 µM. Molecule `CN(CCN)Cc1n[nH]cc1-c1ccc(C2CC2)cc1` [Compound 104] has an IC50 of 1.01 to 3 µM. Work on `CN(CCN)Cc1n[nH]cc1-c1ccc(OC(F)(F)F)cc1` [Compound 105] yielded an IC50 of 3.01 to 10 µM. In the case of `CN(CCN)Cc1c[nH]nc1-c1cc(F)ccc1Cl` [Compound 106], the IC50 is reported as > 10 µM. `COc1ccc(-c2n[nH]cc2CN(C)CCN)c(F)c1` [Compound 107] was tested, and the IC50 was 1.01 to 3 µM. In the case of `Cc1ccc(-c2n[nH]cc2CN(C)CCN)c(F)c1` [Compound 108], the IC50 is reported as 1.01 to 3 µM. `COc1ccccc1-c1n[nH]cc1CN(C)CCN` [Compound 109] was tested, and the IC50 was 3.01 to 10 µM. With `Cc1cc(C#N)ccc1-c1n[nH]cc1CN(C)CCN` [Compound 110] the IC50 was 3.01 to 10 µM. `CN(CCN)Cc1c[nH]nc1-c1cc(F)cc(F)c1` [Compound 111] gave an IC50 of 0.101 to 1 µM. `CC(=O)c1cccc(-c2n[nH]cc2CN(C)CCN)c1` [Compound 112] was tested, and the IC50 was 1.01 to 3 µM. `CN(CCN)Cc1cnn(CC(O)CO)c1-c1ccc(F)cc1` (centres unmarked) [Compound 113] was tested, and the IC50 was > 10 µM. Molecule `CN(CCN)Cc1c[nH]nc1-c1ccc(OC2CC2)cc1` [Compound 114] has an IC50 of 0.101 to 1 µM. Molecule `CC(O)c1ccc(-c2n[nH]cc2CN(C)CCN)cc1` (centres unmarked) [Compound 115] has an IC50 of 3.01 to 10 µM. For `CN(CCN)Cc1c[nH]nc1-c1ccc(C2CC2)cc1` [Compound 116], the IC50 was 1.01 to 3 µM. For `CN(CCN)Cc1c[nH]nc1-c1ccc(C(F)(F)F)c(Cl)c1` [Compound 117], the IC50 was 0.101 to 1 µM. `CN(CCN)Cc1c[nH]nc1-c1ccc(Cl)c(F)c1` [Compound 118] showed an IC50 of 0.101 to 1 µM. For `CN(CCN)Cc1n[nH]cc1-c1ccc(OC2CC2)cc1` [Compound 119], the IC50 was 0.101 to 1 µM. `CN(CCN)Cc1c[nH]nc1-c1cc(F)cc(Cl)c1` [Compound 121] was tested, and the IC50 was 0.101 to 1 µM. For `CN(CCN)Cc1c[nH]nc1-c1cccc(Cl)c1` [Compound 122], the IC50 was 0.101 to 1 µM. In the case of `CN(CCN)Cc1c[nH]nc1-c1cccc(Cl)c1F` [Compound 123], the IC50 is reported as 1.01 to 3 µM. `CN(CCN)Cc1c[nH]nc1-c1ccc(F)c(Cl)c1` [Compound 124] showed an IC50 of 0.101 to 1 µM. `COc1ccc(-c2n[nH]cc2CN(C)CCN)cc1Cl` [Compound 125] showed an IC50 of 1.01 to 3 µM. `Cc1ccc(-c2n[nH]cc2CN(C)CCN)cc1Cl` [Compound 126] showed an IC50 of 0.101 to 1 µM. For `COc1cc(Cl)cc(-c2n[nH]cc2CN(C)CCN)c1` [Compound 127], the IC50 was 1.01 to 3 µM. For `CN(CCN)Cc1cn(CC2CCOCC2)nc1-c1ccc(F)cc1` [Compound 128], the IC50 was > 10 µM. With `Cc1c(F)cccc1-c1n[nH]cc1CN(C)CCN` [Compound 129] the IC50 was 1.01 to 3 µM. `COc1cccc(-c2n[nH]cc2CN(C)CCN)c1` [Compound 130] was tested, and the IC50 was 1.01 to 3 µM. In the case of `Cc1cccc(-c2n[nH]cc2CN(C)CCN)c1` [Compound 131], the IC50 is reported as 1.01 to 3 µM. `CN(CCN)Cc1c[nH]nc1-c1ccc(Cl)cc1F` [Compound 132] showed an IC50 of 1.01 to 3 µM. `Cc1cc(Cl)ccc1-c1n[nH]cc1CN(C)CCN` [Compound 133] gave an IC50 of 3.01 to 10 µM. Molecule `COc1ccc(-c2n[nH]cc2CN(C)CCN)cc1F` [Compound 134] has an IC50 of 1.01 to 3 µM. For `CN(CCN)Cc1c[nH]nc1-c1ccc(C(F)(F)F)cc1Cl` [Compound 135], the IC50 was > 10 µM. Molecule `CCNC(=O)c1ccc(-c2n[nH]cc2CN(C)CCN)cc1` [Compound 136] has an IC50 of 1.01 to 3 µM. Molecule `CN(CCN)Cc1c[nH]nc1-c1cc(Cl)cc(Cl)c1` [Compound 137] has an IC50 of 0.101 to 1 µM. `CN(CCN)Cc1n[nH]cc1-c1ccc(OC(F)F)cc1` [Compound 138] was tested, and the IC50 was 1.01 to 3 µM. In the case of `CN(CCN1CCCC1)Cc1c[nH]nc1-c1ccc(C#N)cc1` [Compound 139], the IC50 is reported as > 10 µM. `CN(CCN)Cc1c[nH]nc1-c1ccccc1C#N` [Compound 140] was tested, and the IC50 was > 10 µM. `CN(CCN)Cc1c[nH]nc1-c1ccc(C(F)(F)F)c(F)c1` [Compound 141] was tested, and the IC50 was 1.01 to 3 µM. For `COc1cc(-c2n[nH]cc2CN(C)CCN)ccc1F` [Compound 142], the IC50 was 1.01 to 3 µM. In the case of `CCN(CC)C(=O)c1ccc(-c2n[nH]cc2CN(C)CCN)cc1` [Compound 143], the IC50 is reported as 3.01 to 10 µM. `CC(C)Oc1ccc(-c2c[nH]nc2CN(C)CCN)cc1F` [Compound 144] showed an IC50 of 3.01 to 10 µM. In the case of `CN(CCN)Cc1n[nH]cc1-c1ccc(C2CCOCC2)cc1` [Compound 145], the IC50 is reported as 3.01 to 10 µM. `COc1ccc(-c2n[nH]cc2CN(C)CCN)c(Cl)c1` [Compound 146] gave an IC50 of 3.01 to 10 µM. `CN(CCN)Cc1c[nH]nc1-c1cc(C#N)ccc1Cl` [Compound 147] was tested, and the IC50 was > 10 µM. With `CN(CCN)Cc1c[nH]nc1-c1ccc(C(F)(F)F)cc1F` [Compound 148] the IC50 was > 10 µM. For `CN(CCN)Cc1c[nH]nc1-c1cccc(N(C)C)c1` [Compound 149], the IC50 was 1.01 to 3 µM. In the case of `CCOC(=O)c1cccc(-c2n[nH]cc2CN(C)CCN)c1` [Compound 150], the IC50 is reported as 1.01 to 3 µM. With `COc1cc(F)ccc1-c1n[nH]cc1CN(C)CCN` [Compound 151] the IC50 was 3.01 to 10 µM. `Cc1cc(F)ccc1-c1n[nH]cc1CN(C)CCN` [Compound 152] was tested, and the IC50 was 3.01 to 10 µM. For `COc1ccc(-c2n[nH]cc2CN(C)CCN)cc1` [Compound 153], the IC50 was 1.01 to 3 µM. With `COc1ccc(-c2n[nH]cc2CN(C)CCN)c(C(F)(F)F)c1` [Compound 154] the IC50 was > 10 µM. `COc1ccc(-c2n[nH]cc2CN(C)CCN)c(C)c1` [Compound 155] was tested, and the IC50 was > 10 µM. In the case of `CN(CCN)Cc1c[nH]nc1-c1cc(Cl)ccc1F` [Compound 156], the IC50 is reported as 3.01 to 10 µM. In the case of `COc1ccc(Cl)cc1-c1n[nH]cc1CN(C)CCN` [Compound 157], the IC50 is reported as > 10 µM. In the case of `Cc1ccc(C#N)cc1-c1n[nH]cc1CN(C)CCN` [Compound 158], the IC50 is reported as > 10 µM. For `Cc1ccc(F)cc1-c1n[nH]cc1CN(C)CCN` [Compound 159], the IC50 was > 10 µM. `COc1ccc(F)cc1-c1n[nH]cc1CN(C)CCN` [Compound 160] was tested, and the IC50 was > 10 µM. With `Cc1ccccc1-c1n[nH]cc1CN(C)CCN` [Compound 161] the IC50 was 3.01 to 10 µM. `Cc1ccc(-c2n[nH]cc2CN(C)CCN)cc1` [Compound 162] gave an IC50 of 0.101 to 1 µM.

Source: patent US9346761B2, “Arginine methyltransferase inhibitors and uses thereof” (Epizyme, Inc., priority 2013, dated 2016)
